The values that follow come from article PMC8869358, “High-Throughput Chemical Screening and Structure-Based Models to Predict hERG Inhibition” (Biology, 2022).

Structures can show the parent of a compound that is named as a salt.

For this assay, the target named is hERG (Homo sapiens, UniProt Q12809). Put plainly: cell-based. Conditions: (-LOG10(IC50), µM).
Sequence of hERG (Q12809 whole entry): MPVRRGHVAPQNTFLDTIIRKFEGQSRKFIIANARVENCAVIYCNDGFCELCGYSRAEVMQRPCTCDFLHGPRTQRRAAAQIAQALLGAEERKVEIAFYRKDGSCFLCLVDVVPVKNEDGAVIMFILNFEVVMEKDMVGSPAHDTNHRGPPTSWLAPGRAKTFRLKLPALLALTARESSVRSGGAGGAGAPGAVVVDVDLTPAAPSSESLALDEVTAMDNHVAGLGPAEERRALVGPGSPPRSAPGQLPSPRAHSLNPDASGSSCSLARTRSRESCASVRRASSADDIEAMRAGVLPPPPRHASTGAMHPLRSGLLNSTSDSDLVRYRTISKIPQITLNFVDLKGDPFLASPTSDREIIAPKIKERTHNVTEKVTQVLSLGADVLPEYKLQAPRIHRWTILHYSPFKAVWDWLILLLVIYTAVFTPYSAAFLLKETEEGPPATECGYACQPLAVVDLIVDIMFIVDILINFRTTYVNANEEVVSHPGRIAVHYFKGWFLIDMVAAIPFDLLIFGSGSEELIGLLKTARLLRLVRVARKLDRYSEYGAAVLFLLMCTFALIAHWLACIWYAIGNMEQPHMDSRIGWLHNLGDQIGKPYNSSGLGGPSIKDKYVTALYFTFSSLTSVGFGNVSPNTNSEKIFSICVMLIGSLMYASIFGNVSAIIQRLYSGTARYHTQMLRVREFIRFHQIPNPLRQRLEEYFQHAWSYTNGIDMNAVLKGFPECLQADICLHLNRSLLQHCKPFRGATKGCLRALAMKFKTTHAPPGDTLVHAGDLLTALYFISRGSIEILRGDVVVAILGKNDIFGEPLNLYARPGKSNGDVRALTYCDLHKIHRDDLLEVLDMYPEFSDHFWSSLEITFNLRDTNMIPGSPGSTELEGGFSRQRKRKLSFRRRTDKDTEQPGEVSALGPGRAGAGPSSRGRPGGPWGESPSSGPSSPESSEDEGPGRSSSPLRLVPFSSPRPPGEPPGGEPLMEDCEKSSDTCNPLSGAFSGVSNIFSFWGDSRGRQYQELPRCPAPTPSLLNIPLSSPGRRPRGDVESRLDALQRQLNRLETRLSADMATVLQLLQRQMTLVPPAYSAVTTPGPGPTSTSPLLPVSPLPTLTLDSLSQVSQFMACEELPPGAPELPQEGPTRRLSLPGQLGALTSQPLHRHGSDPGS
In general, IC50 refers to the midpoint of a concentration-inhibition curve. As for `COC(=O)[C@H]1[C@H]2C[C@@H]3c4[nH]c5cc(OC)ccc5c4CCN3C[C@H]2C[C@@H](OC(=O)c2cc(OC)c(OC)c(OC)c2)[C@@H]1OC` [Reserpine], the IC50 is 9.16 µM.

On to `C[C@@H]1CN(CCCn2c3ccccc3c3ccccc32)C[C@H](C)N1` [Rimcazole dihydrochloride], for which the IC50 is 7.86 µM.

Take `Cc1c(C(=O)NN2CCCCC2)nn(-c2ccc(Cl)cc2Cl)c1-c1ccc(Cl)cc1` [Rimonabant]: the half-maximal inhibitory concentration (IC50) is 3.25 µM.

The compound `O=C(CCCCCCCCc1cccnc1)N1CCC(C=C(c2ccccc2)c2ccccc2)CC1` [Ro 23-7637] showed an IC50 of 11 µM.

`N=C(N/N=C/c1ccc(Cl)cc1)N/N=C/c1ccc(Cl)cc1` [Robenidine] gave an IC50 of 1.69 µM.

Regarding `CCCN(CCc1cccs1)[C@H]1CCc2c(O)cccc2C1` [Rotigotine], the IC50 was 3.01 µM.

Compound `Oc1ccc2[nH]cc(CCCCN3CC=C(c4ccccc4)CC3)c2c1` [Roxindole] had an IC50 of 3.38 µM.

As to `C=CCC1=C(C)[C@@H](OC(=O)[C@@H]2[C@@H](C=C(C)C)C2(C)C)CC1=O` [S-Bioallethrin], half-maximal inhibition (IC50) required 23.6 µM.

As for `CC(=O)NC1(c2cccc(F)c2)CCN(CC[C@@]2(c3ccc(Cl)c(Cl)c3)CN(c3ccccc3)C(=O)CO2)CC1` [SAR102779], the IC50 was 9.08 µM.

As for `CCOC(=O)c1ccc([C@H]2CC[C@H](NC[C@H](O)COc3ccc(O)c(NS(C)(=O)=O)c3)CC2)cc1` [SAR 150640], the IC50 was 28.5 µM.

Consider `Cc1nc(-c2ccc3c(c2)CCN(CCC2CCC(NC(=O)/C=C/c4ccc(F)cc4)CC2)CC3)no1` (stereo not drawn) [SB413217A], for which the half-inhibitory concentration (IC50) was 1.02 µM.

As to `CCOC(=O)COc1ccc2c(c1)CC(NCC(O)c1cccc(Cl)c1)CC2` (stereo not drawn) [SR58611], the IC50 was 1.45 µM.

As for `COc1cccc(-c2ccc(/C=C\CN3CCCCCC3)cc2Cl)c1` [SR125047], the IC50 was 1.48 µM.

For the compound `CN(C)C(=O)NC1(c2ccccc2)CCN(CC[C@@]2(c3ccc(F)c(F)c3)CN(C(=O)c3ccccc3)CCO2)CC1` [SR144190], the half-maximal inhibitory concentration (IC50) is 20.3 µM.

`CN(C)C(=O)NC1(c2ccccc2)CCN(CCC[C@]2(c3ccc(Cl)c(Cl)c3)CCCN(C(=O)c3ccccc3)C2)CC1` [SSR146977] gave an IC50 of 1.71 µM.

`O=C(N[C@@H](c1ccccc1)[C@@H]1CCCCN1)c1cccc(C(F)(F)F)c1Cl` [SSR504734] showed an IC50 of 50.9 µM.

The compound `O=C(N[C@H](c1ccccc1)[C@@H]1CN2CCC1CC2)c1c(Cl)ccc(C(F)(F)F)c1Cl` [SSR 103800] had an IC50 of 30.2 µM.

As for `COc1ccc2cc(S(=O)(=O)N[C@H](CC(=O)N[C@H](Cc3ccc(CN4[C@H](C)CCC[C@@H]4C)cc3)C(=O)N(C)C(C)C)c3ccc4c(c3)OCO4)ccc2c1` [SSR 240612], the IC50 is 7.07 µM.

In turn, `CN(C)C(=O)C1(N2CCCCC2)CCN(CC[C@@]2(c3ccc(Cl)c(Cl)c3)CN(C(=O)c3ccccc3)CCO2)CC1` [SSR 241586 HCl] showed an IC50 of 9.49 µM.

`CC(C)(C)NC(=O)[C@@H]1C[C@@H]2CCCC[C@@H]2CN1C[C@@H](O)[C@H](Cc1ccccc1)NC(=O)[C@H](CC(N)=O)NC(=O)c1ccc2ccccc2n1` [Saquinavir mesylate] showed a half-maximal inhibitory concentration (IC50) of 22.2 µM.

As to `Cc1nc2n(c(=O)c1CCN1CCC(C(=O)c3ccc(F)cc3)CC1)CCS2` [Setoperone], the IC50 is 9.89 µM.

On to `CCCc1ccc(OCC(=O)N2CCN(C(=O)COc3ccc(CCC)cc3OC)CC2)c(OC)c1` [Simetride], for which the IC50 is 1.4 µM.

Compound `CCCCCCCCCCCCc1ccccc1S(=O)(=O)O` [Sodium dodecylbenzenesulfonate] had a 50% inhibitory concentration (IC50) of 24.5 µM.

On to `CNC(=O)c1cc(Oc2ccc(NC(=O)Nc3ccc(Cl)c(C(F)(F)F)c3)cc2)ccn1` [Sorafenib tosylate], for which half-maximal inhibition (IC50) was put at 22.1 µM.

`O=C(CCCN1CCC2(CC1)C(=O)NCN2c1ccccc1)c1ccc(F)cc1` [Spiperone] gave an IC50 of 1.76 µM.

In the case of `CCCN(CC)CC1COC2(CCC(C(C)(C)C)CC2)O1` (stereo not drawn) [Spiroxamine], it took 34.7 µM to reach half-maximal inhibition (IC50).

With `O=C1NCN(c2ccccc2)C12CCN(CC1COc3ccccc3O1)CC2` (stereo not drawn) [Spiroxatrine], it took 6.24 µM to reach half-maximal inhibition (IC50).
